{"source": "patent US5773459A", "about": "“Urea- and thiourea-type compounds” (Sugen, Inc., priority 1995, dated 1998)", "origin": "cited, not measured here", "key": {"[1]": {"system": "human breast cancer cells", "conditions": "Sepp-Lorenzino et al., Abstract, 1994; cited from earlier work"}, "[2]": {"system": "IGF-1R protein tyrosine kinase", "conditions": "Sepp-Lorenzino et al., Abstract, 1994; cited from earlier work"}}, "data": [{"compound": "CO[C@H]1[C@@H](OC)C[C@H](C)[C@@H](OC)C2=CC(=O)C=C(NC(=O)/C(C)=C/C=C\\[C@H](OC)[C@@H](OC(N)=O)/C(C)=C/[C@@H]1C)C2=O", "note": "[Herbimycin A]", "values": [{"measurement": "inhibition of cellular proliferation in human breast cancer cells", "setting": "[1]", "result": "inhibit"}, {"measurement": "inhibition of the IGF-1R protein tyrosine kinase", "setting": "[2]", "result": "inhibit"}]}]}
